Key:
MYC-AURKA interaction = MYC-AURKA interaction (Mus musculus (Mouse), UniProt P97477); experiment: Proximity ligation assay (PLA) for MYC and AURKA in NMP53^−/− cells; assay type: cell-based, murine; settings: 2 h after treatment
Method: To examine whether this MYC degradation is associated with MYC-AURKA PPI disruption, the inventors performed proximity ligation assays (PLA) in NMP53^−/− cells. For Proximity Ligation Assay (PLA), 50 000 cells were seeded on 12 mm glass slides placed in 6 well plates. On the next day, the cells were treated with the indicated compounds or the corresponding DMSO concentration for 2 h (compound 2c [N-(5-((4-(1H-pyrazole-4-yl)benzyl)amino)-2-fluorophenyl)-3-(furan-2-yl)propanamide] and compound 3a [N-(2-fluoro-5-((4-(1-methyl-1H-pyrazole-4-yl)benzyl)amino)phenyl)-3-(furan-2-yl)propanamide]) or 24 h (alisertib) and fixed for 10 min in 100% MeOH at −20° C. The glass slides were removed from the 6 well plates and the cells permeabilized with TBS+0.3% Triton X-100 for 5 min. After washing with PBS and blocking with 5% BSA in TBS+0.05% Tween for 30 min, the slides were incubated with MYC (Abeam ab32072, 1:200) and AURKA (Abcam ab13824, 1:200) specific antibodies in 1% BSA in TBS+0.05% Tween for 120 min at RT and washed 3 times with PBS for 5 min, wherein the MYC/TPX2 and AURKA specific antibodies are derived from a different species. After a 20 min pre-incubation of two PLA probes, directed against either species of the MYC/TPX2 and AURKA specific antibodies, at RT (DUO92001 and DUO92005 Sigma Aldrich, diluted 1:10 in 1% BSA in TBS+0.05% Tween), the slides were incubated with the probes for 60 min at 37° C. in a humidified chamber. The slides were washed 3 times with 1× wash buffer A (Sigma Aldrich DUO82049) for 5 min and incubated with the ligase solution (ligase diluted 1:40 in 5× ligase buffer and ddH2O, Sigma Aldrich DUO92008) for 60 min at 37° C. in a humidified chamber. […] The foci per cell were counted in a way that the cytoplasmic foci are counted to the cell with the closest nucleus (DAPI). Significance was calculated with the GraphPad Prism 8.4.0 software (GraphPad Software, La Jolla, CA) by using the nonparametric Mann Whitney test.

AURKA = AURKA (Homo sapiens (Human), UniProt O14965); experiment: Binding to AURKA
NMP53^−/− cells = experiment: Immunofluorescence staining (α-tubulin, DAPI) of normal and abnormal spindles; assay type: cell-based, murine; settings: different treatment times
Method: The AURKA compounds of this invention trigger the formation of abnormal (multipolar and monopolar) spindles a few minutes after application. A. Representative images of immunofluorescence stainings with antibodies against α-tubulin (light grey) and DAPI (surrounded by a dashed white line) of a tumor cell line (NMP53^−/− cells) treated for 24 hours with compound 3a [N-(2-fluoro-5-((4-(1-methyl-1H-pyrazole-4-yl)benzyl)amino)phenyl)-3-(furan-2-yl)-propanamide] or DMSO as a control. B. Quantification of normal and abnormal spindles of immunofluorescence staining with antibodies against α-tubulin and DAPI of a tumor cell line (NMP53^−/− cells) after different treatment times with compound 3a according to this invention or DMSO as a control.
The AURKA compounds of this invention trigger the formation of abnormal (e.g. multipolar and/or monopolar) spindles in tumor cell lines (NMP53^−/− cells) (FIG. 8).

Sequence of MYC-AURKA interaction (P97477 whole entry): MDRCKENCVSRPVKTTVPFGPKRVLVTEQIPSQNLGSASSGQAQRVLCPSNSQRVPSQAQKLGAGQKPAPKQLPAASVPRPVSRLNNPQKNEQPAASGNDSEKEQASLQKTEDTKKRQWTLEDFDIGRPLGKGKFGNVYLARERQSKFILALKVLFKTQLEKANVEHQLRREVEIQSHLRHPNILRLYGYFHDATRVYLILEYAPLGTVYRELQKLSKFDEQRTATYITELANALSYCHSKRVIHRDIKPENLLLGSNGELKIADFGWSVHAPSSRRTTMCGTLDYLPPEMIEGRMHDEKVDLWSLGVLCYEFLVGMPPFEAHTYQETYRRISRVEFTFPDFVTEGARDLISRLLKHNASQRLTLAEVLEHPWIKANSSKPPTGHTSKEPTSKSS
Sequence of AURKA (O14965 whole entry): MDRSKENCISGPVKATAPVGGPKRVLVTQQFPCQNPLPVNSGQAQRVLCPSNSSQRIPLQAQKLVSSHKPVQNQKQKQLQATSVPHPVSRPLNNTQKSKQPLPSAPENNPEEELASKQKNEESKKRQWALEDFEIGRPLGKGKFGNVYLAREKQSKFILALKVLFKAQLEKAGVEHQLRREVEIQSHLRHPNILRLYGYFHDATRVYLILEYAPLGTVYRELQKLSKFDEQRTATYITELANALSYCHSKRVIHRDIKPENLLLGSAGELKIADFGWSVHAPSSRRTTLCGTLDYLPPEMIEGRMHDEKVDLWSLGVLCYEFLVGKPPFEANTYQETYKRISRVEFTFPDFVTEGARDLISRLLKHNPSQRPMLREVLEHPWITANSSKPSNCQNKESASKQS

| Compound | reduction of the MYC-AURKA interaction compared to DMSO (MYC-AURKA interaction) [%] | binding to AURKA (AURKA) | formation of abnormal spindles (NMP53^−/− cells) |
| --- | --- | --- | --- |
| O=C(CCc1ccco1)Nc1cc(NCc2ccc(-c3cn[nH]c3)cc2)ccc1F [Compound 2c, N-(5-((4-(1H-pyrazole-4-yl)benzyl)amino)-2-fluorophenyl)-3-(furan-2-yl)propanamide] | 66.7 | strong binding |  |
| Cn1cc(-c2ccc(CNc3ccc(F)c(NC(=O)CCc4ccco4)c3)cc2)cn1 [Compound 3a, N-(2-fluoro-5-((4-(1-methyl-1H-pyrazole-4-yl)benzyl)amino)phenyl)-3-(furan-2-yl)propanamide] | 50 |  | induce the formation of abnormal spindles within a few minutes |

Source: US20240101538A1, “PROTEIN-PROTEIN INTERACTION MODULATORS OF AURORA KINASE A AND THEIR USE IN THE PREVENTION AND/OR TREATMENT OF CANCER” (EBERHARD KARLS UNIVERSITÄT TÜBINGEN, priority 2020, published 2024)
